Where no end group is shown, it is not given here.

This note sets out measurements from paper PMC4472440, “Structure-Dependent Immune Modulatory Activity of Protegrin-1 Analogs” (Antibiotics, 2014).

Assay [1] has as its system meningococcal LOS (TLR4 ligand). The assay can be described thus: Inhibition of meningococcal LOS activity in macrophages (Table 1). Particulars: peptide 2 µg/mL preincubated with meningococcal LOS 30 min at 37 °C, macrophages stimulated overnight; read-out behind the % not stated in Table 1. It counts as cell-based, Neisseria meningitidis. On the procedure:
(§1) Human THP-1 (monocyte-like cells) and murine RAW264 macrophages were stimulated with TLR ligands with or without preincubation with PG-1 and its analogs (Table 1). Purified meningococcal CPS samples were freshly dissolved in pyrogen-free sterile H2O at 1 mg/mL stock concentration and vortexed for 2 min. Working CPS concentrations (ranging from 100 µg/mL to 1 µg/mL) were made in duplicate wells using sterile PBS by serial fold dilutions in the 96-well tissue culture plates (Becton Dickinson, Franklin Lakes, NJ, USA) at 50 µL final volumes. PG-1 analogs (2 µg/mL) or PBS equivalent volumes were added to designated wells and preincubated for 30 min at 37 °C. Freshly grown THP-1 cells and murine macrophages, each adjusted to 10^6 cell/mL and 250 µL aliquots, were dispensed into each well at a final cell density of 250 × 10^3 in the designated 96-well plates. The plates were incubated overnight at 37 °C with 5% CO2 and humidity. Supernatants from stimulated cells were harvested and stored at −20 °C until use.
(§2) The cytokines TNFα and IL-1β, released from THP-1 cells, were quantified by DuoSet ELISA (R&D Systems), as previously described. […]
(§3) Freshly grown adherent RAW264 macrophages were harvested, washed and re-suspended in Dulbecco’s complete media, counted and adjusted to 10^6 cell/mL. […] Nitric oxide release was quantified using the Greiss chemical method, as previously described.

The subject of assay [2] is meningococcal capsular polysaccharide (CPS) polymers (TLR2 and TLR4 ligand). The assay can be described thus: Inhibition of meningococcal CPS polymer activity in macrophages (Table 1). It counts as cell-based, Neisseria meningitidis. The settings on record: peptide 2 µg/mL preincubated with meningococcal CPS polymers 30 min at 37 °C, macrophages stimulated overnight; read-out behind the % not stated in Table 1. The protocol:
as §1, §2, §3

The subject of assay [3] is RAW264 macrophages induced with meningococcal LOS. The assay can be described thus: Nitric oxide release from RAW264 macrophages induced with meningococcal LOS, Greiss method. It counts as cell-based, murine. The settings on record: RAW264, LOS doses preincubated with 2 µg/mL peptide 30 min at 37 °C, overnight, Figure 6, result in words. The protocol:
Figure 6 PG-1 analogs neutralized meningococcal LOS bioactivity and inhibited nitric oxide release. Nitric oxide was released from murine RAW264 macrophages induced overnight with meningococcal LOS doses pre-incubated with or without 2 µg/mL of PG-1 or its analogs for 30 min at 37 °C. Nitric oxide release was measured by the Greiss method. Error bars represent ± SD from the mean of duplicate measurements. This experiment is representative of two independent experiments.
as §1, with “Freshly grown THP-1 cells and murine macrophages, each adjusted to 10^6 cell/mL and 250 µL aliquots, were dispensed into each well at a final cell density of 250 × 10^3 in the designated 96-well plates. The plates were incubated overnight at 37 °C with 5% CO2 and humidity. Supernatants from stimulated cells were harvested and stored at −20 °C until use.” left out
as §3

In assay [4] the test system is RAW264 macrophages induced with meningococcal CPS polymers. The assay can be described thus: Nitric oxide release from RAW264 macrophages induced with meningococcal CPS polymers, Greiss method. It counts as cell-based, murine. The settings on record: RAW264, CPS doses preincubated with 2 µg/mL peptide 30 min at 37 °C, overnight, Figure 7, result in words. The protocol:
Figure 7 PG-1 analogs neutralized meningococcal capsular polysaccharide (CPS) polymer activity and inhibited nitric oxide release. CPS polymers were purified from the endotoxin-deficient serogroup B meningococcal NMB-lpxA mutant designated CPS. Nitric oxide was released from murine RAW264 macrophages induced overnight with doses of meningococcal CPS polymers pre-incubated with or without 2 µg/mL of PG-1 or its analogs for 30 min at 37 °C. Nitric oxide release was measured by the Greiss method. Error bars represent ±SD from the mean of duplicate measurements. This experiment is representative of two independent experiments.
Human THP-1 (monocyte-like cells) and murine RAW264 macrophages were stimulated with TLR ligands with or without preincubation with PG-1 and its analogs (Table 1). Purified meningococcal CPS samples were freshly dissolved in pyrogen-free sterile H2O at 1 mg/mL stock concentration and vortexed for 2 min. […]
as §3

For “Compound 8: linearized non-cysteine PG-1 analog with alanine replacements (RGGRLAYARRRFAVAVGR-NH2)”, in assay [1], the “LOS activity inhibition (%)” value was 33%. In addition, in assay [2], the “CPS activity inhibition (%)” value is 23%. Besides, the “Inhibition of nitric oxide release (neutralization of LOS)” value in assay [3] is listed as “failed to inhibit”. For the same substance, the “Inhibition of nitric oxide release (neutralization of CPS)” value in assay [4] is recorded as “failed to inhibit”.
As to “Protegrin-1 (RGGRLCYCRRRFCVCVGR; not fully specified; cysteine pairing not given here) [Compound 1, native porcine PG-1, 18-residue β-hairpin peptide with two disulfide bridges]”, the “LOS activity inhibition (%)” value in assay [1] is 99.9%. Also, in assay [2], the “CPS activity inhibition (%)” value worked out at 99%.
